# Experimental data from ChEMBL document CHEMBL1201862, “PubChem BioAssay data set” (2004).
#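 Interpolation was linear, between the two tested concentrations surrounding the appropriate level; five concentrations were tested over 48 hours in 96-well plates. Here, GI50 denotes the concentration required for 50% inhibition of growth.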 The source made the active and inactive calls. Rule as the data show it: active = GI50 up to about 1.1 µM and inactive = higher.
# How the values were obtained:
# Experiment in all cases: inhibition of tumour cell growth, NCI panel, 48 h
# DMS-273 = test system: DMS-273
# SW-620 = test system: SW-620
# SK-MEL-28 = test system: SK-MEL-28
# SF-268 = test system: SF-268
# HL-60 = test system: HL-60
# SK-OV-3 = test system: SK-OV-3
# U-251 = test system: U-251
# Malme-3M = test system: Malme-3M
# 786-0 = test system: 786-0
# HOP-18 = test system: HOP-18
# SNB-75 = test system: SNB-75
# HOP-92 = test system: HOP-92
# RXF 393 = test system: RXF 393
# XF498 = test system: XF498
# OVCAR-4 = test system: OVCAR-4
# SF-539 = test system: SF-539
# M19-MEL = test system: M19-MEL
# TK-10 = test system: TK-10
# HT-29 = test system: HT-29
# KM12 = test system: KM12
# UO-31 = test system: UO-31
# UACC-257 = test system: UACC-257
# OVCAR-3 = test system: OVCAR-3
# A549 = test system: A549
# EKVX = test system: EKVX
# HCT-15 = test system: HCT-15
# CAKI-1 = test system: CAKI-1
# M14 = test system: M14
# LXFL 529 = test system: LXFL 529
# RPMI-8226 = test system: RPMI-8226
# LOX IMVI = test system: LOX IMVI
# SF-295 = test system: SF-295
# NCI-H23 = test system: NCI-H23
# OVCAR-8 = test system: OVCAR-8
# NCI-H460 = test system: NCI-H460
# NCI-H522 = test system: NCI-H522
# NCI-H226 = test system: NCI-H226
# COLO 205 = test system: COLO 205
# SNB-78 = test system: SNB-78
# SK-MEL-5 = test system: SK-MEL-5
# IGROV-1 = test system: IGROV-1
# DMS-114 = test system: DMS-114
# K562 = test system: K562
# SN12C = test system: SN12C
# OVCAR-5 = test system: OVCAR-5
# CCRF-CEM = test system: CCRF-CEM
# SNB-19 = test system: SNB-19
# KM-20L2 = test system: KM-20L2
# SK-MEL-2 = test system: SK-MEL-2
# A498 = test system: A498
# UACC-62 = test system: UACC-62
# HCT-116 = test system: HCT-116
# MOLT-4 = test system: MOLT-4
smiles,measurement,setting,value
CCC1=CCC(P(=O)(c2ccccc2)c2ccccc2)CC1C (stereo not drawn),GI50,DMS-273,36.3 µM (inactive)
same,GI50,SW-620,48.5 µM (inactive)
same,GI50,SK-MEL-28,37.8 µM (inactive)
same,GI50,SF-268,35.2 µM (inactive)
same,GI50,HL-60,22.2 µM (inactive)
same,GI50,SK-OV-3,62.8 µM (inactive)
same,GI50,U-251,46.1 µM (inactive)
same,GI50,Malme-3M,41.7 µM (inactive)
same,GI50,786-0,39 µM (inactive)
same,GI50,HOP-18,22.8 µM (inactive)
same,GI50,SNB-75,18.5 µM (inactive)
same,GI50,HOP-92,25.5 µM (inactive)
same,GI50,RXF 393,42.2 µM (inactive)
same,GI50,XF498,40.1 µM (inactive)
same,GI50,OVCAR-4,35.6 µM (inactive)
same,GI50,SF-539,42.9 µM (inactive)
same,GI50,M19-MEL,39.5 µM (inactive)
same,GI50,TK-10,32.6 µM (inactive)
same,GI50,HT-29,> 100 µM (inactive)
same,GI50,KM12,35.1 µM (inactive)
same,GI50,UO-31,21.7 µM (inactive)
same,GI50,UACC-257,74.5 µM (inactive)
same,GI50,OVCAR-3,35.4 µM (inactive)
same,GI50,A549,37.1 µM (inactive)
same,GI50,EKVX,35.3 µM (inactive)
same,GI50,HCT-15,34.9 µM
same,GI50,CAKI-1,> 100 µM (inactive)
same,GI50,M14,32.6 µM (inactive)
same,GI50,LXFL 529,41.8 µM (inactive)
same,GI50,RPMI-8226,22.9 µM (inactive)
same,GI50,LOX IMVI,44.3 µM (inactive)
same,GI50,SF-295,32 µM (inactive)
same,GI50,NCI-H23,39.7 µM (inactive)
same,GI50,OVCAR-8,39.1 µM (inactive)
same,GI50,NCI-H460,39.1 µM (inactive)
same,GI50,NCI-H522,20.7 µM (inactive)
same,GI50,NCI-H226,39.2 µM (inactive)
same,GI50,COLO 205,35 µM (inactive)
same,GI50,SNB-78,61.2 µM (inactive)
same,GI50,SK-MEL-5,28 µM (inactive)
same,GI50,IGROV-1,47.1 µM (inactive)
same,GI50,DMS-114,32.9 µM (inactive)
same,GI50,K562,35.2 µM (inactive)
same,GI50,SN12C,44.7 µM (inactive)
same,GI50,OVCAR-5,65.2 µM (inactive)
same,GI50,CCRF-CEM,31.3 µM (inactive)
same,GI50,SNB-19,27.5 µM (inactive)
same,GI50,KM-20L2,37.1 µM (inactive)
same,GI50,SK-MEL-2,29.7 µM (inactive)
same,GI50,A498,38.5 µM (inactive)
same,GI50,UACC-62,33.3 µM (inactive)
same,GI50,HCT-116,22.9 µM (inactive)
same,GI50,MOLT-4,20.5 µM (inactive)
